In patent US20240415819A1, “MACROCYCLIC COMPOUNDS AS PROTEASOME SUBUNIT BETA TYPE-5 INHIBITORS” (Lead Discovery Center GmbH, priority 2021, published 2024):

Assays:
[1] = target: T1, β5 subunit of the human constitutive proteasome (CPS) (Homo sapiens, UniProt P28074); assay: β5 inhibition assay, human constitutive proteasome (Suc-LLVY-AMC); format: biochemical; details: IC50 class, Suc-LLVY-AMC substrate
T1 construct: purchased Boston Biochem E-360
Method: The enzymatic activity of the β5 subunit of the human constitutive proteasome (CPS) is analyzed. In another assay, which differs from the assay of the human constitutive proteasome only in using the human immunoproteasome (IPS) the enzymatic activity of the β5 subunit of the human immunoproteasome (IPS) is analyzed. […] Inhibition is indicated as IC50 [nM] (“-”=not measured).

HT-29 cells = assay: CellTiter-Glo luminescent cell viability assay with HT-29 cells (72h incubation); format: cell-based, human; details: Homo sapiens, HT-29, HT29 cells, read-out: CTG HT29
How it was run: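 Viability read as CellTiter-Glo luminescence after 72 h compound exposure, with 10 μM staurosporine and DMSO as control wells. Seeding 400 cells per well, compound added 24 h post-plating; IC50 from curve fitting.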

[2] = tested on: A549 (human lung carcinoma cell line); assay: Glo assay of A549 cells (Table 3; ProteasomeGlo plating scheme); format: cell-based; details: Homo sapiens; A549 cells; read-out: PGLo A549
Source text: Inhibition is indicated as IC50 [nM] (“-”=not measured). […] • Chymotrypsin-Like Cell-Based Proteasome-GloTM Assay (Promega; […]) • Cell culture 384-well plates (Greiner BioOne; 781080) • Dispensing cassette, MultiDrop Standard tube dispensing cassette (Thermo Scientific; 24072670) • DPBS (Pan BioTech; P04-36500) • Cell culture 384-well plates (Greiner BioOne; 781080) • CPD source plate: diamond-shape plate (Labcyte; LP-0200) • Intermediate plate (Labcyte; P-05525) [table] • a. Remove the plates with cells from the incubator. • b. Take all the plates including the compound plate, intermediate plate and Staurosporine plate to the ECHO. • c. Click on “Open” in the ECHO software and select the protocol “QLI5_25ul_30 uM-Grenier”. • d. Follow the on-screen prompts and instructions once you click “Start” to insert the compound plate, intermediate plate and destination plates. • e. Change the final number of destination plates on the program. • f. Follow the on-screen prompts and instructions once you click “Start” to load the Staurosporine and destination plates. • g. Once all the compounds, DMSO and Staurosporine have been transferred, place the destination plates in a wet tissue box. • h. Place the destination plates back into the incubator and incubate at 37° C., 5% CO2 for 105 minutes. • i. Re-seal all the compound+Stauro diamond and intermediate plates and store in the dark. Chymotrypsin like ProteasomeGlo Assay • 1. Thaw the components of the ProteasomeGlo assay at room temperature including the ProteasomeGlo Buffer, the lyophilized Luciferin Detection Reagent and the Suc-LLVY-Glo Substrate. • 2. Reconstitute the Luciferin Detection Reagent in the amber coloured bottle by adding 50 ml of the ProteasomeGlo Buffer. • 3. Vortex the Suc-LLVY-Glo Substrate briefly to reconstitute the Substrate well. • 4. Spin down the Substrate and add 250 μl of the Substrate to the reconstituted Luciferin Detection Reagent from step 2. • 5. Briefly vortex the amber bottle with the mix to prepare a homogenous solution. • 6. Place the mix prepared in step 5 to sit at room temperature for 60 minutes. • 7. After 60 minutes, pipette 25 μl of the mix from step 5 into all wells with the cells. • 8. Shake the plates for 2-5 minutes to ensure the complete mixing of the ProteasomeGlo reagent with the cells. • 9. Leave the plates in the dark for 10-15 minutes. • 10. Measure the luminescence read-out using the Viktor and the protocol “Luminescence_384Well_0.2 sec”. (Note: The Protoeasome-GloTM Reagent (combined Proteasome-GloTM Substrate, Proteasome-GloTM Buffer and Luciferin Detection Reagent) can be stored at 4° C. or -20° C. for 1 month with minimal loss of activity.)

[3] = target: T2, β5 subunit of the human immunoproteasome (IPS) (Homo sapiens, UniProt P28062); assay: β5 inhibition assay, human immunoproteasome (Suc-LLVY-AMC); format: biochemical; details: IC50 class, Suc-LLVY-AMC substrate
T2 construct: purchased Boston Biochem E-370
How it was run: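 β5 activity is read as liberated AMC fluorescence (355/460 nm) after 4 h dark reaction at RT with 22.6 μM Suc-LLVY-AMC, stopped by 1 μM bortezomib. Beforehand, 1 nM human IPS and compound sat 10 min at RT in HEPES pH 7.5 buffer containing NaCl, 0.02% SDS and DTT.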

[4] = tested on: RPMI 8226 (B lymphocyte cell line, multiple myeloma); assay: 48 hr CTG viability assay, RPMI 8226; format: cell-based; details: Homo sapiens, RPMI-8226; 48 hr CTG; read-out: RPMI-8226 IC50
Method: (§1) A viability assay was conducted for 48 hours to evaluate the inhibition of cancer cell growth by proteasome inhibitors. Briefly, the candidate cell line was plated with a 96-well plate following density of cells, respectively. 6×10^3 Cells/well for A2780 (human ovarian cancer cell line) and MDA-MB-468 (breast carcinoma), 8×10^3 Cells/well for Hs746T (human gastric carcinoma cell line), 1.1×10^4 Cells/well for MM1 S and RPMI 8226 (multiple myeloma). After 24 hours, the cells were treated with various concentrations of the compound (ranging from 0.0015 uM to 10 uM). […] After 48 hours of incubation at 37° C., 5% CO2 incubator, cells were analyzed for viability using the CellTiter-Glo Luminescent Cell Viability assay (Promega, Cat #G7570). All viability assays were performed in duplicate and Luminescence was read using an Envision (Perkin Elmer, USA). Data were analyzed using XLfit software. […] (human gastric carcinoma cell line), MM1 S (B lymphoblast cell line), and RPMI 8226 (B lymphocyte cell line, multiple myeloma). Inhibition is indicated as IC50 [nM] (“-”=not measured).

[5] = tested on: MM1 S (B lymphoblast cell line); assay: 48 hr CTG viability assay, MM1S; format: cell-based; details: Homo sapiens, 48 hr CTG, read-out: MM1S IC50
Method: as §1

Measured: IC50

Cc1ccc2cc1CNC(=O)[C@H](CCc1ccccc1)NC(=O)[C@@H](NC(=O)C(C)c1ccc3ncccc3c1)CC(=O)N1CCCC(CCO2)C1 (stereo partly drawn) [Compound 369, N-((9S,12S)-5^4-methyl-8,11,14-trioxo-9-phenethyl-4-oxa-7,10-diaza-1(3,1)-piperidina-5(1,3)-benzenacyclotetradecaphane-12-yl)-2-(quinolin-6-yl)propanamide]
< 0.1 µM: [1] | HT-29 cells | [2] | [3]

Cc1ccc2cc1CNC(=O)[C@H](CCc1ccccc1)NC(=O)[C@@H](NC(=O)C(C)(C)CO)CC(=O)N1CCC[C@H](CCO2)C1 [Compound 573]
< 0.1 µM: [4] | [5]

Cc1ccc2cc1CNC(=O)[C@H](CCc1cccnc1)NC(=O)[C@@H](NC(=O)Cc1ccccc1F)CC(=O)N1CCCC(CCO2)C1 (stereo partly drawn) [Compound 600, 2-(2-fluorophenyl)-N-((9S,12S)-5^4-methyl-8,11,14-trioxo-9-(2-(pyridin-3-yl)ethyl)-4-oxa-7,10-diaza-1(3,1)-piperidina-5(1,3)-benzenacyclotetradecaphane-12-yl)acetamide]
< 0.1 µM: [1] | [4] | [5] | [3]

Cc1ccc2cc1CNC(=O)[C@H](CCc1ccccc1)NC(=O)[C@@H](NC(=O)C(C)(C)CO)CC(=O)N1CCC[C@@H](CCO2)C1 [Compound 644, 3-hydroxy-2,2-dimethyl-N-((13S,9S,12S)-5^4-methyl-8,11,14-trioxo-9-phenethyl-4-oxa-7,10-diaza-1(3,1)-piperidina-5(1,3)-benzenacyclotetradecaphane-12-yl)propanamide]
not listed: HT-29 cells
< 0.1 µM: all other assays above

Cc1ccc2cc1CNC(=O)[C@H](CCc1ccccc1)NC(=O)[C@@H](NC(=O)C(C)(C)CF)CC(=O)N1CCCC(CCO2)C1 (stereo partly drawn) [Compound 650, 3-fluoro-2,2-dimethyl-N-((9S,12S)-5^4-methyl-8,11,14-trioxo-9-phenethyl-4-oxa-7,10-diaza-1(3,1)-piperidina-5(1,3)-benzenacyclotetradecaphane-12-yl)propanamide]
not listed: HT-29 cells
< 0.1 µM: all other assays above

Cc1ccc2cc1CNC(=O)[C@H](CCc1ccccc1)NC(=O)[C@@H](NC(=O)C1(CO)CCC1)CC(=O)N1CCCC(CCO2)C1 (stereo partly drawn) [Compound 670, 1-(hydroxymethyl)-N-((9S,12S)-5^4-methyl-8,11,14-trioxo-9-phenethyl-4-oxa-7,10-diaza-1(3,1)-piperidina-5(1,3)-benzenacyclotetradecaphane-12-yl)cyclobutane-1-carboxamide]
not listed: HT-29 cells
< 0.1 µM: all other assays above

Cc1ccc2cc1CNC(=O)[C@H](CCc1ccccc1)NC(=O)[C@@H](NC(=O)C(C)(C)CN)CC(=O)N1CCCC(CCO2)C1 (stereo partly drawn) [Compound 682, 3-amino-2,2-dimethyl-N-((9S,12S)-5^4-methyl-8,11,14-trioxo-9-phenethyl-4-oxa-7,10-diaza-1(3,1)-piperidina-5(1,3)-benzenacyclotetradecaphane-12-yl)propanamide]
not listed: HT-29 cells
< 0.1 µM: all other assays above
